In patent US5696082A, “Hydroxamic acid derivatives” (British Biotech Pharmaceuticals Limited, priority 1993, dated 1997) one finds IC50 data, which are given here for one compound.

One experiment addresses stromelysin (Homo sapiens, UniProt P08254). Briefly: Stromelysin inhibition (hydrolysis of 14C acetylated casein). The class given is biochemical. The conditions noted are these: 37°, 16 hours, pH 7.5, 14C acetylated casein. How it is done: The potency of compounds of the invention as inhibitors of stromelysin was determined by the procedure of Cawston et al, (Biochem. J., 195, 159-165, 1981), hereby incorporated by reference, whereby a 1 mM solution of the compound being tested, or a dilution thereof, was incubated at 37° for 16 hours with stromelysin and ^14 C acetylate casein (buffered with 25 mM Hepes [Registered Trade Mark], pH 7.5 containing 5 mM CaCl2, 0.05% Brij [Registered Trade Mark] 35 and 0.02% NAN3). The casein was acetylated ^14 C casein prepared by the method of Cawston et al (ibid).

The next experiment concerns the target collagenase (Homo sapiens, UniProt P03956). Briefly: Collagenase inhibition (hydrolysis of acetylated 14C collagen). The class given is biochemical. To be noted: 37° C., 16 hours, pH 7.5, acetylated 14C collagen. As for the experimental part:
The potency of compounds of the invention as inhibitors of collagenase was determined by the procedure of Cawston and Barrett, (Anal. Biochem., 99, 340-345, 1979), hereby incorporated by reference, whereby a 1 mM solution of the compound being tested, or a dilution thereof, was incubated at 37° C. for 16 hours with collagen and collagenase (buffered with 25 mM Hepes [Registered Trade Mark], pH 7.5 containing 5 mM CaCl2, 0.05% Brij [Registered Trade Mark] 35 and 0.02% NAN3). The collagen Was acetylated 14C collagen prepared by the method of Cawston and Murphy, (Methods in Enzymology, 80, 711, 1981), hereby incorporated by reference. The samples were centrifuged to sediment undigested collagen, and an aliquot of the radioactive supernatant removed for assay on a scintillation counter as a measure of hydrolysis.

Chain of stromelysin (P08254 100-477): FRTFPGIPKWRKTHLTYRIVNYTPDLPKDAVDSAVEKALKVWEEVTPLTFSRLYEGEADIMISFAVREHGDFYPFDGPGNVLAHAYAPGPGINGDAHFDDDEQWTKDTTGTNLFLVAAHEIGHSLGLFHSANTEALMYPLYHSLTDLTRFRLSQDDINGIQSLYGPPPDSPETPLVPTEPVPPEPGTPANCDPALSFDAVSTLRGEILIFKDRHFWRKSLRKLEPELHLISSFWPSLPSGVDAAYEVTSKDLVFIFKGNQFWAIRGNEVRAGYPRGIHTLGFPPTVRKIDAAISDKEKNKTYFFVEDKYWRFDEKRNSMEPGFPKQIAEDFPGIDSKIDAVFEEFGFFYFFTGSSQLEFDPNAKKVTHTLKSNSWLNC
Chain of collagenase (P03956 100-469): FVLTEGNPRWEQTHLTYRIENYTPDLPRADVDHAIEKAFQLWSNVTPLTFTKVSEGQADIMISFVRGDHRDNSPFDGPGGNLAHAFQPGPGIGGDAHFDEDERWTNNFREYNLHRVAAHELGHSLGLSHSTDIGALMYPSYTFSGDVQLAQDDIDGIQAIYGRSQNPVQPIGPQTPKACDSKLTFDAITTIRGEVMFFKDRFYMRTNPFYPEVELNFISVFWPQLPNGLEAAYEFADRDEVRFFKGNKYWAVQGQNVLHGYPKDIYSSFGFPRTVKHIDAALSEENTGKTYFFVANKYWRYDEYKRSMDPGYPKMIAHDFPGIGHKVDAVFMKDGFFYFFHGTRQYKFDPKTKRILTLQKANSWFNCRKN

On to `CNC(=O)[C@H](Cc1ccc(OCC(=O)N[C@@H]2O[C@H](CO)[C@@H](O)[C@H](O)[C@H]2NC(C)=O)cc1)NC(=O)[C@@H](CC(=O)NO)CC(C)C` [Example 3, [4-(N-Hydroxyamino)-2R-isobutylsuccinyl]-O-[(2-acetamido-2-deoxy-β-D-glucopyranosyl)carboxamidomethyl]-L-tyrosine-N-methylamide], for which the concentration for half-maximal inhibition (IC50) (as a rule, the midpoint of a concentration-inhibition curve) against stromelysin came to 600 nM; against collagenase, 20 nM.
